Experimental findings from patent publication US20130303509A1, “NAMPT INHIBITORS” (AbbVie Inc., priority 2012, published 2013) are described below.

The test relates to PC3 cells. Kind of test: NAMPT Cell Proliferation Assay. It is filed as cell-based. The note with it: Homo sapiens, PC-3, 120 h, 5 days incubation, cell viability by Cell Titer Glo. The method in brief: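 Five-day CellTiter-Glo viability readout in PC3 cells grown in RPMI/10% heat-inactivated FBS. Compounds added after overnight attachment as a 10-fold dilution series, […]. Percent inhibition fitted to sigmoidal dose-response to derive IC50.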

In turn, `O=C(Nc1ccc(C2CCN(C(=O)c3ccsc3)CC2)cc1)C1CN(c2cccnn2)C1` [Example 425, 1-(pyridazin-3-yl)-N-{4-[1-(thiophen-3-ylcarbonyl)piperidin-4-yl]phenyl}azetidine-3-carboxamide] gave an IC50 of 0.91 nM.
As for `Cc1cc(C(=O)N2CCC(c3ccc(NC(=O)C4CN(c5cccnn5)C4)cc3)CC2)c(C)o1` [Example 426, N-(4-{1-[(2,5-dimethylfuran-3-yl)carbonyl]piperidin-4-yl}phenyl)-1-(pyridazin-3-yl)azetidine-3-carboxamide], the figure is 2.07 nM.
As for `O=C(Nc1ccc(C2CCN(C(=O)CC3CC3)CC2)cc1)C1CN(c2cccnn2)C1` [Example 427, N-{4-[1-(cyclopropylacetyl)piperidin-4-yl]phenyl}-1-(pyridazin-3-yl)azetidine-3-carboxamide], the figure is 2.03 nM; as for `O=C(Nc1ccc(C2CCN(C(=O)c3ccccc3F)CC2)cc1)C1CN(c2cccnn2)C1` [Example 428, N-{4-[1-(2-fluorobenzoyl)piperidin-4-yl]phenyl}-1-(pyridazin-3-yl)azetidine-3-carboxamide], 0.19 nM; as for `Cc1ccccc1C(=O)N1CCC(c2ccc(NC(=O)C3CN(c4cccnn4)C3)cc2)CC1` [Example 429, N-{4-[1-(2-methylbenzoyl)piperidin-4-yl]phenyl}-1-(pyridazin-3-yl)azetidine-3-carboxamide], 0.8 nM.
In the case of `O=C(Nc1ccc(C2CCN(C(=O)c3cscn3)CC2)cc1)C1CN(c2cccnn2)C1` [Example 430, 1-(pyridazin-3-yl)-N-{4-[1-(1,3-thiazol-4-ylcarbonyl)piperidin-4-yl]phenyl}azetidine-3-carboxamide], the IC50 amounted to 1.42 nM. This IC50 lies about 1.8-fold higher than the previous one.
To `O=C(Nc1ccc(C2CCN(C(=O)c3cncs3)CC2)cc1)C1CN(c2cccnn2)C1` [Example 431, 1-(pyridazin-3-yl)-N-{4-[1-(1,3-thiazol-5-ylcarbonyl)piperidin-4-yl]phenyl}azetidine-3-carboxamide] belongs 1.67 nM.
Compound `CCOCC(=O)N1CCC(c2ccc(NC(=O)C3CN(c4cccnn4)C3)cc2)CC1` [Example 432, N-{4-[1-(ethoxyacetyl)piperidin-4-yl]phenyl}-1-(pyridazin-3-yl)azetidine-3-carboxamide] came in with an IC50 of 8 nM.
As for `O=C(Nc1ccc(C2CCN(C(=O)CCC(F)(F)F)CC2)cc1)C1CN(c2cccnn2)C1` [Example 433, 1-(pyridazin-3-yl)-N-{4-[1-(4,4,4-trifluorobutanoyl)piperidin-4-yl]phenyl}azetidine-3-carboxamide], the figure is 5.77 nM; as for `Cc1ccc(C(=O)N2CCC(c3ccc(NC(=O)C4CN(c5cccnn5)C4)cc3)CC2)cn1` [Example 434, N-(4-{1-[(6-methylpyridin-3-yl)carbonyl]piperidin-4-yl}phenyl)-1-(pyridazin-3-yl)azetidine-3-carboxamide], 6.35 nM.
In turn, `O=C(Nc1ccc(C2CCN(C(=O)c3ccccc3)CC2)cc1)C1CN(c2cccnn2)C1` [Example 435, N-[4-(1-benzoylpiperidin-4-yl)phenyl]-1-(pyridazin-3-yl)azetidine-3-carboxamide] registered an IC50 of 0.3 nM.
Take `O=C(Nc1ccc(C2CCN(C(=O)c3ccco3)CC2)cc1)C1CN(c2cccnn2)C1` [Example 436, N-{4-[1-(furan-2-ylcarbonyl)piperidin-4-yl]phenyl}-1-(pyridazin-3-yl)azetidine-3-carboxamide]: half-maximal inhibition (IC50) was put at 0.67 nM. This IC50 is about 2.2-fold higher than that of the compound before.
For the compound `CC1(C(=O)N2CCC(c3ccc(NC(=O)C4CN(c5cccnn5)C4)cc3)CC2)CCCCC1` [Example 437, N-(4-{1-[(1-methylcyclohexyl)carbonyl]piperidin-4-yl}phenyl)-1-(pyridazin-3-yl)azetidine-3-carboxamide], the IC50 came to 0.98 nM.
To `CC(=O)C(=O)N1CCC(c2ccc(NC(=O)C3CN(c4cccnn4)C3)cc2)CC1` [Example 438, N-{4-[1-(2-oxopropanoyl)piperidin-4-yl]phenyl}-1-(pyridazin-3-yl)azetidine-3-carboxamide] belongs 1.96 nM; to `O=C(Nc1ccc(C2CCN(C(=O)C3CCCC3)CC2)cc1)C1CN(c2cccnn2)C1` [Example 439, N-{4-[1-(cyclopentylcarbonyl)piperidin-4-yl]phenyl}-1-(pyridazin-3-yl)azetidine-3-carboxamide], 3.36 nM.
As for `CCC(=O)N1CCC(c2ccc(NC(=O)C3CN(c4cccnn4)C3)cc2)CC1` [Example 440, N-[4-(1-propanoylpiperidin-4-yl)phenyl]-1-(pyridazin-3-yl)azetidine-3-carboxamide], the figure is 1.8 nM; as for `Cc1ccc(C(=O)N2CCC(c3ccc(NC(=O)C4CN(c5cccnn5)C4)cc3)CC2)cc1` [Example 441, N-{4-[1-(4-methylbenzoyl)piperidin-4-yl]phenyl}-1-(pyridazin-3-yl)azetidine-3-carboxamide], 6.83 nM.
The compound `O=C(Nc1ccc(O[C@@H]2CCN(C(=O)c3ccccc3Cl)C2)cc1)C1CN(c2ccnnc2)C1` [Example 442, N-(4-{[(3R)-1-(2-chlorobenzoyl)pyrrolidin-3-yl]oxy}phenyl)-1-(pyridazin-4-yl)azetidine-3-carboxamide] had an IC50 of 6.25 nM.
As for `O=C(Nc1ccc(O[C@@H]2CCN(C(=O)c3nccs3)C2)cc1)C1CN(c2ccnnc2)C1` [Example 443, 1-(pyridazin-4-yl)-N-(4-{[(3R)-1-(1,3-thiazol-2-ylcarbonyl)pyrrolidin-3-yl]oxy}phenyl)azetidine-3-carboxamide], the figure is 5.65 nM; as for `O=C(Nc1ccc(O[C@@H]2CCN(C(=O)CC3CC3)C2)cc1)C1CN(c2ccnnc2)C1` [Example 444, N-(4-{[(3R)-1-(cyclopropylacetyl)pyrrolidin-3-yl]oxy}phenyl)-1-(pyridazin-4-yl)azetidine-3-carboxamide], 78 nM.
As to `CC[C@H](C)C(=O)N1CC[C@@H](Oc2ccc(NC(=O)C3CN(c4ccnnc4)C3)cc2)C1` [Example 445, N-[4-({(3R)-1-[(2S)-2-methylbutanoyl]pyrrolidin-3-yl}oxy)phenyl]-1-(pyridazin-4-yl)azetidine-3-carboxamide], the IC50 was 19.1 nM.
In turn, `O=C(Nc1ccc(O[C@@H]2CCN(C(=O)C3CCOCC3)C2)cc1)C1CN(c2ccnnc2)C1` [Example 446, 1-(pyridazin-4-yl)-N-(4-{[(3R)-1-(tetrahydro-2H-pyran-4-ylcarbonyl)pyrrolidin-3-yl]oxy}phenyl)azetidine-3-carboxamide] registered an IC50 of 108 nM.
As for `O=C(Nc1ccc(O[C@@H]2CCN(C(=O)Cc3ccc(OC(F)(F)F)cc3)C2)cc1)C1CN(c2ccnnc2)C1` [Example 447, 1-(pyridazin-4-yl)-N-(4-{[(3R)-1-{[4-(trifluoromethoxy)phenyl]acetyl}pyrrolidin-3-yl]oxy}phenyl)azetidine-3-carboxamide], the figure is 903 nM; as for `O=C(Nc1ccc(O[C@@H]2CCN(C(=O)c3ccsc3)C2)cc1)C1CN(c2ccnnc2)C1` [Example 448, 1-(pyridazin-4-yl)-N-(4-{[(3R)-1-(thiophen-3-ylcarbonyl)pyrrolidin-3-yl]oxy}phenyl)azetidine-3-carboxamide], 9.32 nM.
To `O=C(Nc1ccc(O[C@@H]2CCN(C(=O)Cc3ccc(F)cc3)C2)cc1)C1CN(c2ccnnc2)C1` [Example 449, N-[4-({(3R)-1-[(4-fluorophenyl)acetyl]pyrrolidin-3-yl}oxy)phenyl]-1-(pyridazin-4-yl)azetidine-3-carboxamide] belongs 678 nM.
To `O=C(Nc1ccc(O[C@@H]2CCN(C(=O)Cc3cc(F)cc(F)c3)C2)cc1)C1CN(c2ccnnc2)C1` [Example 450, N-[4-({(3R)-1-[(3,5-difluorophenyl)acetyl]pyrrolidin-3-yl}oxy)phenyl]-1-(pyridazin-4-yl)azetidine-3-carboxamide] belongs 50.9 nM; to `O=C(Nc1ccc(O[C@@H]2CCN(C(=O)c3ccc(F)c(F)c3)C2)cc1)C1CN(c2ccnnc2)C1` [Example 451, N-(4-{[(3R)-1-(3,4-difluorobenzoyl)pyrrolidin-3-yl]oxy}phenyl)-1-(pyridazin-4-yl)azetidine-3-carboxamide], 86.8 nM.
`O=C(Nc1ccc(O[C@@H]2CCN(C(=O)Cc3cccc(F)c3)C2)cc1)C1CN(c2ccnnc2)C1` [Example 452, N-[4-({(3R)-1-[(3-fluorophenyl)acetyl]pyrrolidin-3-yl}oxy)phenyl]-1-(pyridazin-4-yl)azetidine-3-carboxamide] gave an IC50 of 63.2 nM. This IC50 and that of the compound before are within 1.5-fold of each other.
`O=C(Nc1ccc(O[C@@H]2CCN(C(=O)c3cccc(C(F)(F)F)c3)C2)cc1)C1CN(c2ccnnc2)C1` [Example 453, 1-(pyridazin-4-yl)-N-[4-({(3R)-1-[3-(trifluoromethyl)benzoyl]pyrrolidin-3-yl}oxy)phenyl]azetidine-3-carboxamide] returned an IC50 of 105 nM.
As for `O=C(Nc1ccc(O[C@@H]2CCN(C(=O)Cc3ccc(F)cc3F)C2)cc1)C1CN(c2ccnnc2)C1` [Example 454, N-[4-({(3R)-1-[(2,4-difluorophenyl)acetyl]pyrrolidin-3-yl}oxy)phenyl]-1-(pyridazin-4-yl)azetidine-3-carboxamide], the figure is 106 nM; as for `O=C(Nc1ccc(O[C@@H]2CCN(C(=O)Cc3ccc(C(F)(F)F)cc3)C2)cc1)C1CN(c2ccnnc2)C1` [Example 455, 1-(pyridazin-4-yl)-N-(4-{[(3R)-1-{[4-(trifluoromethyl)phenyl]acetyl}pyrrolidin-3-yl]oxy}phenyl)azetidine-3-carboxamide], 458 nM.
As for `O=C(Nc1ccc(O[C@@H]2CCN(C(=O)c3cscn3)C2)cc1)C1CN(c2ccnnc2)C1` [Example 456, 1-(pyridazin-4-yl)-N-(4-{[(3R)-1-(1,3-thiazol-4-ylcarbonyl)pyrrolidin-3-yl]oxy}phenyl)azetidine-3-carboxamide], the figure is 39.5 nM; as for `O=C(Nc1ccc(O[C@@H]2CCN(C(=O)C3CCCO3)C2)cc1)C1CN(c2ccnnc2)C1` (stereo partly drawn) [Example 457, 1-(pyridazin-4-yl)-N-(4-{[(3R)-1-(tetrahydrofuran-2-ylcarbonyl)pyrrolidin-3-yl]oxy}phenyl)azetidine-3-carboxamide], 142 nM.
